Experimental data from patent publication US20020002124A1, “Antimicrobial cleansing compositions” (priority 2000, published 2002).

Assay: Mildness to the skin (drying, stinging) on topical use
Assay type: in vivo
Conditions: as proton donating agent in the compositions

## O=C1CCC(C(=O)O)N1 (stereo not shown) [2-pyrrolidone-5 carboxylic acid]
  mildness to the skin and stinging compared with other acids suitable for topical application: milder to the skin and causes less stinging than many other acids
